Experimental findings from patent US20260297081A1, “COMPOUNDS AND METHODS OF TREATING CANCERS” (Cullgen Inc., priority 2023, published 2026) are described below.

Where two headings read alike, the source gives them in different places.

Test [1] deals with MCF7 cells. The test is described as follows: Anti-proliferation (viability) of MCF7 cells (Table 7, FIG. 2B). The format is cell-based. Particulars: 3-6 days, 10-point serial dilution, read-out: GI IC50 in MCF-7.
Test [2] concerns the target CDK4 (Homo sapiens, UniProt P11802+Q16531). Briefly: CDK4 percentage degradation in Calu-1 cells (Table 6). Also noted: Cells that express cyclin D1-3 and CDK4/6 proteins were treated with heterobifunctional compounds; endogenous in cells; host or cells: Calu-1. Particulars: 16 hours; for inhibition at 0.04 µM: 40 nM; for inhibition at 0.2 µM: 200 nM. The format is cell-based. A digest of the protocol: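 Calu-1 cells exposed to heterobifunctional compounds at 40 nM or 200 nM for 16 h. Cyclin D1 and CDK4 levels measured by Western blot of RIPA lysates (BCA-normalised loading), bands quantified by densitometry and expressed as percentage degradation.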

Chain of CDK4 (P11802 2-303 limits assumed): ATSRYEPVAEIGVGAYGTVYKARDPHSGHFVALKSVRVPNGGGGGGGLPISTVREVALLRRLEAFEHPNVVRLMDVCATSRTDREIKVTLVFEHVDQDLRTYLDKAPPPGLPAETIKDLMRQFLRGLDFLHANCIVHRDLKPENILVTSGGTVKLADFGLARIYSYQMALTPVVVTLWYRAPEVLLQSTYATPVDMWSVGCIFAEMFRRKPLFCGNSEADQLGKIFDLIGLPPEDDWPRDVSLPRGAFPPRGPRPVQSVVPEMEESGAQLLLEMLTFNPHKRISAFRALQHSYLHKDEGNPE
Chain of CDK4 (P24385 whole entry partner): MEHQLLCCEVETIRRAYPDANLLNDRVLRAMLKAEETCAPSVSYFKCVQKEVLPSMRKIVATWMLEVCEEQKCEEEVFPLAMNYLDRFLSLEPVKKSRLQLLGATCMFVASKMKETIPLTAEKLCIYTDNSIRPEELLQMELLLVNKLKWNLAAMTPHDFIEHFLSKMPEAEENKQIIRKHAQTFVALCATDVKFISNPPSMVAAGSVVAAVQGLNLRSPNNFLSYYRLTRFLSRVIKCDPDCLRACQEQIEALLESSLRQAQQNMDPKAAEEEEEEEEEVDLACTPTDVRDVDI
Chain of CDK4 (Q16531 2-1140 limits assumed): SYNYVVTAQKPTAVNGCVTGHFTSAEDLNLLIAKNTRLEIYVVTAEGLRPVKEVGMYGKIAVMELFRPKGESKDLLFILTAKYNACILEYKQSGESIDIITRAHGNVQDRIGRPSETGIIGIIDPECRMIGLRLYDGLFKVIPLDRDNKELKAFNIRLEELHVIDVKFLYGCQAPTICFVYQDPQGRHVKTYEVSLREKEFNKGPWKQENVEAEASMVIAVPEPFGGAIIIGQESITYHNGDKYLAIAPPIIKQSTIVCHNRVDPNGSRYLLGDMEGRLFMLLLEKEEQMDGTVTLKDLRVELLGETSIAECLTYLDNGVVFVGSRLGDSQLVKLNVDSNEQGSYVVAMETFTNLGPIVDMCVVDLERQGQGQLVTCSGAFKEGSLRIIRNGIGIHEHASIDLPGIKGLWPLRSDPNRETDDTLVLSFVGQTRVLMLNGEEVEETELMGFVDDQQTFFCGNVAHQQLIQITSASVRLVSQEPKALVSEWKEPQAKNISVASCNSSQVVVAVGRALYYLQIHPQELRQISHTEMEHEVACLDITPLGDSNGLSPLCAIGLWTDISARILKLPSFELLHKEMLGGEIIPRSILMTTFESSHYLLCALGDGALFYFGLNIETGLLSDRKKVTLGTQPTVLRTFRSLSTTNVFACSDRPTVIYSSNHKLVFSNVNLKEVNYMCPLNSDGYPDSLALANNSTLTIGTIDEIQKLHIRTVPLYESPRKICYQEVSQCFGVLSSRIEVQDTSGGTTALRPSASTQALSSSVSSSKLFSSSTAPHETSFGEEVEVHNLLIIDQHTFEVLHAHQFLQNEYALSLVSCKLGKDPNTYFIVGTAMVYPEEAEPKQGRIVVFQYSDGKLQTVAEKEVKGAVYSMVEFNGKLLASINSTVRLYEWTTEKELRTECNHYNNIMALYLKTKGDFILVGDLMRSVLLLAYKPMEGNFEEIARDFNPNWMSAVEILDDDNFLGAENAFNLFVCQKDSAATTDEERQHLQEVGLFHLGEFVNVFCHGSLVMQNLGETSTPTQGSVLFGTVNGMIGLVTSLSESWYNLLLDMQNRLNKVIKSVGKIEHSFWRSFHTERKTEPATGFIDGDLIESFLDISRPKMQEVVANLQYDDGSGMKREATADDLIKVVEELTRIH

By IC50 is commonly meant the point on the concentration scale where inhibition reaches its midpoint. By inhibition is commonly meant the drop in the measured response relative to a control, in per cent. High values mean a strong effect, low ones a weak effect. On to `CNc1ccc(C(=O)Nc2ccc(N(C)C)nn2)c(NC2CC(Cn3cc(CN4CCN(c5ccc(Nc6ncc7c(C)c(C(C)=O)c(=O)n(C8CCCC8)c7n6)nc5)CC4)nn3)C2)n1` (stereo not shown) [CPD-202, 2-((3-((4-((4-(6-((6-acetyl-8-cyclopentyl-5-methyl-7-oxo-7,8-dihydropyrido[2,3-d]pyrimidin-2-yl)amino)pyridin-3-yl)piperazin-1-yl)methyl)-1H-1,2,3-triazol-1-yl)methyl)cyclobutyl)amino)-N-(6-(dimethylamino)pyridazin-3-yl)-6-(methylamino)nicotinamide], for which, in test [1] (Homo sapiens, MCF7, MCF7 cells), the IC50 was less than 0.05 µM. In test [2], this molecule registered an inhibition at 0.04 µM of 50 to 80% and an inhibition at 0.2 µM of 50 to 80%.
Turning to `CNc1ccc(C(=O)Nc2ccc(N(C)C)nn2)c(NC2CCN(C(=O)CCN3CCN(c4ccc(Nc5ncc6c(C)c(C(C)=O)c(=O)n(C7CCCC7)c6n5)nc4)CC3)CC2)n1` [CPD-203, 2-((1-(3-(4-(6-((6-acetyl-8-cyclopentyl-5-methyl-7-oxo-7,8-dihydropyrido[2,3-d]pyrimidin-2-yl)amino)pyridin-3-yl)piperazin-1-yl)propanoyl)piperidin-4-yl)amino)-N-(6-(dimethylamino)pyridazin-3-yl)-6-(methylamino)nicotinamide], in test [1] (Homo sapiens, MCF7, MCF7 cells), the IC50 was less than 0.05 µM. Also, in test [2], the inhibition at 0.04 µM fell in the range of 50 to 80% and the inhibition at 0.2 µM was 50 to 80%.
In the case of `CC(=O)c1c(C)c2cnc(Nc3ccc(N4CCC5(CC4)CC5C(=O)NC4CC5(C4)CC(Nc4nc(NC(C)C)ccc4C(=O)Nc4cc(C)n(C)n4)C5)cn3)nc2n(C2CCCC2)c1=O` (stereo not shown) [CPD-451, 6-(6-((6-acetyl-8-cyclopentyl-5-methyl-7-oxo-7,8-dihydropyrido[2,3-d]pyrimidin-2-yl)amino)pyridin-3-yl)-N-(6-((3-((1,5-dimethyl-1H-pyrazol-3-yl)carbamoyl)-6-(isopropylamino)pyridin-2-yl)amino)spiro[3.3]heptan-2-yl)-6-azaspiro[2.5]octane-1-carboxamide], the IC50 in test [1] (Homo sapiens, MCF7, MCF7 cells) is less than 0.05 µM.
Still for that read-out and setting: to `CC(=O)c1c(C)c2cnc(Nc3ccc(N4CCN(CC(=O)NC5CC6(C5)CC(Nc5nc(NC(C)C)ccc5C(=O)Nc5cc(C)n(C7CC7)n5)C6)CC4)cn3)nc2n(C2CCCC2)c1=O` (stereo not shown) [CPD-452, 2-((6-(2-(4-(6-((6-acetyl-8-cyclopentyl-5-methyl-7-oxo-7,8-dihydropyrido[2,3-d]pyrimidin-2-yl)amino)pyridin-3-yl)piperazin-1-yl)acetamido)spiro[3.31]heptan-2-yl)amino)-N-(1-cyclopropyl-5-methyl-1H-pyrazol-3-yl)-6-(isopropylamino)nicotinamide] belongs less than 0.05 µM; to `COc1cccc(NC(=O)c2ccc(NC(C)C)nc2NC2CC3(CC(NC(=O)CN4CCN(c5ccc(Nc6ncc7c(C)c(C(C)=O)c(=O)n(C8CCCC8)c7n6)nc5)CC4)C3)C2)n1` (stereo not shown) [CPD-453, 2-((6-(2-(4-(6-((6-acetyl-8-cyclopentyl-5-methyl-7-oxo-7,8-dihydropyrido[2,3-d]pyrimidin-2-yl)amino)pyridin-3-yl)piperazin-1-yl)acetamido)spiro[3.3]heptan-2-yl)amino)-6-(isopropylamino)-N-(6-methoxypyridin-2-yl)nicotinamide], 0.05 to 0.1 µM.
Regarding `CC(=O)c1c(C)c2cnc(Nc3ccc(N4CCN(C5CCN(C(=O)C6(O)CCC(Nc7nc(NC(C)C)ccc7C(=O)Nc7ccc(N(C)C)nn7)CC6)C5)CC4)cn3)nc2n(C2CCCC2)c1=O` (stereo not drawn) [CPD-575, 2-((trans-4-(3-(4-(6-((6-acetyl-8-cyclopentyl-5-methyl-7-oxo-7,8-dihydropyrido[2,3-d]pyrimidin-2-yl)amino)pyridin-3-yl)piperazin-1-yl)pyrrolidine-1-carbonyl)-4-hydroxycyclohexyl)amino)-N-(6-(dimethylamino)pyridazin-3-yl)-6-(isopropylamino)nicotinamide], in test [1] (MCF7 cells), the IC50 is greater than 0.1 µM.
